Test results published in publication PMC9005681, “Use of AD Informer Set compounds to explore validity of novel targets in Alzheimer's disease pathology” (Alzheimer's & Dementia : Translational Research & Clinical …, 2022).
Where “and” joins values, the source holds several entries; their conditions need not be identical. Equal entries are not always repeated.

Experiments:
Test in all cases: PDSP GPCR panel primary binding assays at 10 μM
[1] = target: T1, cloned human or rodent CNS receptors, channels, and transporters (PDSP panel) (Homo sapiens, UniProt P08172); details: primary assay
T1 construct: expressed in transfected cells
T1 sequence (P08172 1-466): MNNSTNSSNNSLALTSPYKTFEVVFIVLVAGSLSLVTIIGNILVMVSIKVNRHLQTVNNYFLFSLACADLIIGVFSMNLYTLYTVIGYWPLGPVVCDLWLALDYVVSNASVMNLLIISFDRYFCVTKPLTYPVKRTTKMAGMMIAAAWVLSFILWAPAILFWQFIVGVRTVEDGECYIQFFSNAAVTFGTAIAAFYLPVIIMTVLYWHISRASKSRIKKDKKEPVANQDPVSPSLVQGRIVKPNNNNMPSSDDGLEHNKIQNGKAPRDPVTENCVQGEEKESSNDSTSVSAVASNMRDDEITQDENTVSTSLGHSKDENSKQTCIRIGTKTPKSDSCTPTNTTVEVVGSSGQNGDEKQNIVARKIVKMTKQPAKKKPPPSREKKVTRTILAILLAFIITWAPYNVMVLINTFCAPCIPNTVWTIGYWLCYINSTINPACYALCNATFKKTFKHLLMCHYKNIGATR
In short: (§1)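 Each compound is first screened once at 10 μM, in quadruplicate, for radioligand displacement. Where mean displacement passes 50%, an 11-point dose-response in triplicate follows at that target, except at H3, PBR and GABAA.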

[2] = target: T2, cloned human or rodent CNS receptors, channels, and transporters (PDSP panel) (Homo sapiens, UniProt P21918); details: primary assay
T2 construct: expressed in transfected cells
T2 sequence (P21918 whole entry): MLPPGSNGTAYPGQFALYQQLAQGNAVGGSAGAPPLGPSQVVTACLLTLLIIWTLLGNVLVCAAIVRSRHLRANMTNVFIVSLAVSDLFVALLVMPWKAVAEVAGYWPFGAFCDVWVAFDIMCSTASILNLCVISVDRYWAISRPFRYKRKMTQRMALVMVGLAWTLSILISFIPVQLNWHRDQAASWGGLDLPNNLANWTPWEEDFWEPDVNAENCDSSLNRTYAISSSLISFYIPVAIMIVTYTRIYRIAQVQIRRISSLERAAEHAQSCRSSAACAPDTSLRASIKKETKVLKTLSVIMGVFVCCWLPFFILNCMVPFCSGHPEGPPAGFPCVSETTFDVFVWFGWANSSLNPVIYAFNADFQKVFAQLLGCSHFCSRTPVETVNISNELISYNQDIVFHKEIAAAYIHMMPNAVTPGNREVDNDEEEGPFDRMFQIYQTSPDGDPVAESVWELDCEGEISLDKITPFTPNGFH
In short: as §1

[3] = target: T3, cloned human or rodent CNS receptors, channels, and transporters (PDSP panel) (Homo sapiens, UniProt P28221); details: primary assay
T3 construct: expressed in transfected cells
T3 sequence (P28221 whole entry): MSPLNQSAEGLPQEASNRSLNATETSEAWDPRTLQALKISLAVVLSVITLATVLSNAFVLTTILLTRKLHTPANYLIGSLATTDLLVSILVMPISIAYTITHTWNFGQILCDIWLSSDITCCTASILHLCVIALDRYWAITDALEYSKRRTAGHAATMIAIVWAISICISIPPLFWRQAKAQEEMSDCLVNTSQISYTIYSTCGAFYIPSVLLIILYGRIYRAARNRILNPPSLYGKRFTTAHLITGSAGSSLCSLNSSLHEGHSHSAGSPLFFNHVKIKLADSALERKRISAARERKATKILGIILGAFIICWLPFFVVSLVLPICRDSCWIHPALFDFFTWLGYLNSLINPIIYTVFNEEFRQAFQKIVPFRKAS
In short: as §1

[4] = target: T4, cloned human or rodent CNS receptors, channels, and transporters (PDSP panel) (Homo sapiens, UniProt P35368); details: primary assay
T4 construct: expressed in transfected cells
T4 sequence (P35368 1-520): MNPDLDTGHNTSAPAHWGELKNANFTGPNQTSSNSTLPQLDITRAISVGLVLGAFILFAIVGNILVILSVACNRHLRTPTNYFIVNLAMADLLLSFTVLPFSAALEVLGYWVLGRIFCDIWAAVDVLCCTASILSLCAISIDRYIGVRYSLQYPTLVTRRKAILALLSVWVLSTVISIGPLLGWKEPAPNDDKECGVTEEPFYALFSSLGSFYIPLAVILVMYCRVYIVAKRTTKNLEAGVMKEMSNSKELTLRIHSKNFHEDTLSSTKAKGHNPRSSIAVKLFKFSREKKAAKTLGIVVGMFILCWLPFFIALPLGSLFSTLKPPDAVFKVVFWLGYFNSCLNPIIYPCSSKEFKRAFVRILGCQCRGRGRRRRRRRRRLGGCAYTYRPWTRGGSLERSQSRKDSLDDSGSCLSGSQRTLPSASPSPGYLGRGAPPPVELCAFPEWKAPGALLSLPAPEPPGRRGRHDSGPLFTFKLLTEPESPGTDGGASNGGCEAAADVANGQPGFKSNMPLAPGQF
In short: as §1

[5] = test system: cloned human or rodent CNS receptors, channels, and transporters (PDSP panel); details: for Inhibition 1 / Inhibition 2 / Inhibition 3 / Inhibition 4 / Mean %: primary assay
In short: as §1

[6] = Receptor BZP Rat Brain Site, 10 μM

Cl.NC(=O)c1cnc(N[C@@H]2CCCC[C@@H]2N)nc1Nc1cccc(-n2nccn2)c1 [UNC10302682A, P505-15 (PRT06207 HCl)]
Inhibition 1 ([1]; Receptor M2, 10 μM): -1.69%
Inhibition 2 ([1]; Receptor M2, 10 μM): 2.24%
Inhibition 3 ([1]; Receptor M2, 10 μM): -4.88%
Inhibition 4 ([1]; Receptor M2, 10 μM): 1.51%
Mean % ([1]; Receptor M2, 10 μM, mean of Inhibition 1-4): -0.71%
Inhibition 1 ([2]; Receptor D5, 10 μM): 21.97%
Inhibition 2 ([2]; Receptor D5, 10 μM): 17.01%
Inhibition 3 ([2]; Receptor D5, 10 μM): 7.24%
Inhibition 4 ([2]; Receptor D5, 10 μM): 14.53%
Mean % ([2]; Receptor D5, 10 μM, mean of Inhibition 1-4): 15.19%
Inhibition 1 ([3]; Receptor 5-HT1D, 10 μM): 74.44%
Inhibition 2 ([3]; Receptor 5-HT1D, 10 μM): 57.78%
Inhibition 3 ([3]; Receptor 5-HT1D, 10 μM): 54.87%
Inhibition 4 ([3]; Receptor 5-HT1D, 10 μM): 71.94%
Mean % ([3]; Receptor 5-HT1D, 10 μM, mean of Inhibition 1-4): 64.76%
Inhibition 1 ([4]; Receptor Alpha1B, 10 μM): 60.7%
Inhibition 2 ([4]; Receptor Alpha1B, 10 μM): 57.49%
Inhibition 3 ([4]; Receptor Alpha1B, 10 μM): 49.58%
Inhibition 4 ([4]; Receptor Alpha1B, 10 μM): 52.45%
Mean % ([4]; Receptor Alpha1B, 10 μM, mean of Inhibition 1-4): 55.06%
Affinity for receptors in primary assays ([5]; 10 μM, 46-47 primary binding assays): possessed affinity for the most receptors in primary assays
Inhibition 1 ([5]; Receptor Alpha1A, 10 μM): 22.91%
Inhibition 2 ([5]; Receptor Alpha1A, 10 μM): 19.17%
Inhibition 3 ([5]; Receptor Alpha1A, 10 μM): 28.52%
Inhibition 4 ([5]; Receptor Alpha1A, 10 μM): 1.22%
Mean % ([5]; Receptor Alpha1A, 10 μM, mean of Inhibition 1-4): 17.96%
Inhibition 1 ([5]; Receptor Alpha2A, 10 μM): 21.38%
Inhibition 2 ([5]; Receptor Alpha2A, 10 μM): 23.31%
Inhibition 3 ([5]; Receptor Alpha2A, 10 μM): 19.6%
Inhibition 4 ([5]; Receptor Alpha2A, 10 μM): 16.75%
Mean % ([5]; Receptor Alpha2A, 10 μM, mean of Inhibition 1-4): 20.26%
Inhibition 1 ([5]; Receptor Alpha2C, 10 μM): 22.11%
Inhibition 2 ([5]; Receptor Alpha2C, 10 μM): 17.82%
Inhibition 3 ([5]; Receptor Alpha2C, 10 μM): 14.79%
Inhibition 4 ([5]; Receptor Alpha2C, 10 μM): 26.53%
Mean % ([5]; Receptor Alpha2C, 10 μM, mean of Inhibition 1-4): 20.31%
Inhibition 1 [5, 6]: 6.42%
Inhibition 2 [5, 6]: 10.02%
Inhibition 3 [5, 6]: 1.11%
Inhibition 4 [5, 6]: 13.06%
Mean % ([5]; Receptor BZP Rat Brain Site, 10 μM, mean of Inhibition 1-4): 7.65%
Inhibition 1 ([5]; Receptor DOR, 10 μM): -18.41%
Inhibition 2 ([5]; Receptor DOR, 10 μM): -4.86%
Inhibition 3 ([5]; Receptor DOR, 10 μM): 0.02%
Inhibition 4 ([5]; Receptor DOR, 10 μM): 6.53%
Mean % ([5]; Receptor DOR, 10 μM, mean of Inhibition 1-4): -4.18%
Inhibition 1 ([5]; Receptor H3, 10 μM): 29.95%
Inhibition 2 ([5]; Receptor H3, 10 μM): 45.1%
Inhibition 3 ([5]; Receptor H3, 10 μM): 59.09%
Inhibition 4 ([5]; Receptor H3, 10 μM): 65.79%
Mean % ([5]; Receptor H3, 10 μM, mean of Inhibition 1-4): 49.98%
Inhibition 1 ([5]; Receptor H4, 10 μM): 11.34%
Inhibition 2 ([5]; Receptor H4, 10 μM): 13.02%
Inhibition 3 ([5]; Receptor H4, 10 μM): 28.62%
Inhibition 4 ([5]; Receptor H4, 10 μM): 77.11%
Mean % ([5]; Receptor H4, 10 μM, mean of Inhibition 1-4): 32.52%
Inhibition 1 ([5]; Receptor Sigma 1, 10 μM): 15.02%
Inhibition 2 ([5]; Receptor Sigma 1, 10 μM): 35.34%
Inhibition 3 ([5]; Receptor Sigma 1, 10 μM): 14.82%
Inhibition 4 ([5]; Receptor Sigma 1, 10 μM): 27.31%
Mean % ([5]; Receptor Sigma 1, 10 μM, mean of Inhibition 1-4): 23.12%
Inhibition 1 ([5]; Receptor Sigma 2, 10 μM): 57.01%
Inhibition 2 ([5]; Receptor Sigma 2, 10 μM): 56.94%
Inhibition 3 ([5]; Receptor Sigma 2, 10 μM): 67.96%
Inhibition 4 ([5]; Receptor Sigma 2, 10 μM): 81.11%
Mean % ([5]; Receptor Sigma 2, 10 μM, mean of Inhibition 1-4): 65.76%

CC(=O)N1CCC(NC(=O)NC23CC4CC(CC(C4)C2)C3)CC1 [UNC10302683A, AR9281]
Mean % ([1]; M2, mean inhibition): -10.23%
Inhibition 1 ([1]; M2, replicate 1): -16.19%
Inhibition 2 ([1]; M2, replicate 2): -6.36%
Inhibition 3 ([1]; M2, replicate 3): -14.96%
Inhibition 4 ([1]; M2, replicate 4): -3.41%
Mean % ([2]; D5, mean inhibition): -11.88%
Inhibition 1 ([2]; D5, replicate 1): -7.18%
Inhibition 2 ([2]; D5, replicate 2): -13.14%
Inhibition 3 ([2]; D5, replicate 3): -18.03%
Inhibition 4 ([2]; D5, replicate 4): -9.17%
Mean % ([3]; 5-HT1D, mean inhibition): 6.45%
Inhibition 1 ([3]; 5-HT1D, replicate 1): 17.8%
Inhibition 2 ([3]; 5-HT1D, replicate 2): 3.64%
Inhibition 3 ([3]; 5-HT1D, replicate 3): 4.06%
Inhibition 4 ([3]; 5-HT1D, replicate 4): 0.31%
Mean % ([4]; Alpha1B, mean inhibition): 5.33%
Inhibition 1 ([4]; Alpha1B, replicate 1): 32.86%
Inhibition 2 ([4]; Alpha1B, replicate 2): -1.86%
Inhibition 3 ([4]; Alpha1B, replicate 3): 1.69%
Inhibition 4 ([4]; Alpha1B, replicate 4): -11.37%
Mean % ([5]; Alpha1A, mean inhibition): -5.99%
Inhibition 1 ([5]; Alpha1A, replicate 1): 5.7%
Inhibition 2 ([5]; Alpha1A, replicate 2): -8.88%
Inhibition 3 ([5]; Alpha1A, replicate 3): -13.37%
Inhibition 4 ([5]; Alpha1A, replicate 4): -7.39%
Mean % ([5]; Alpha2A, mean inhibition): -4.95%
Inhibition 1 ([5]; Alpha2A, replicate 1): 1.83%
Inhibition 2 ([5]; Alpha2A, replicate 2): 1.33%
Inhibition 3 ([5]; Alpha2A, replicate 3): -3.6%
Inhibition 4 ([5]; Alpha2A, replicate 4): -19.37%
Mean % ([5]; Alpha2C, mean inhibition): -1.59%
Inhibition 1 ([5]; Alpha2C, replicate 1): 8.16%
Inhibition 2 ([5]; Alpha2C, replicate 2): -7.23%
Inhibition 3 ([5]; Alpha2C, replicate 3): -5.47%
Inhibition 4 ([5]; Alpha2C, replicate 4): -1.81%
Mean % ([5]; BZP Rat Brain Site, mean inhibition): -1.68%
Inhibition 1 ([5]; BZP Rat Brain Site, replicate 1): -9.6%
Inhibition 2 ([5]; BZP Rat Brain Site, replicate 2): -7.42%
Inhibition 3 ([5]; BZP Rat Brain Site, replicate 3): 1.02%
Inhibition 4 ([5]; BZP Rat Brain Site, replicate 4): 9.27%
Mean % ([5]; DOR, mean inhibition): -7.7%
Inhibition 1 ([5]; DOR, replicate 1): -16.42%
Inhibition 2 ([5]; DOR, replicate 2): -2.69%
Inhibition 3 ([5]; DOR, replicate 3): 0.93%
Inhibition 4 ([5]; DOR, replicate 4): -12.63%
Inhibition 1 ([5]; GABAA, replicate 1): 12.11% and 21.01%
Inhibition 2 ([5]; GABAA, replicate 2): 4.71% and -10.34%
Inhibition 3 ([5]; GABAA, replicate 3): 1.76% and -2.77%
Inhibition 4 ([5]; GABAA, replicate 4): 5.45% and -49.8%
Mean % ([5]; H3, mean inhibition): 8.09%
Inhibition 1 ([5]; H3, replicate 1): 9.84%
Inhibition 2 ([5]; H3, replicate 2): -10.86%
Inhibition 3 ([5]; H3, replicate 3): 12.17%
Inhibition 4 ([5]; H3, replicate 4): 21.2%
Mean % ([5]; H4, mean inhibition): -2.1%
Inhibition 1 ([5]; H4, replicate 1): -0.42%
Inhibition 2 ([5]; H4, replicate 2): -2.58%
Inhibition 3 ([5]; H4, replicate 3): -25.38%
Inhibition 4 ([5]; H4, replicate 4): 19.98%
Mean % ([5]; Sigma 1, mean inhibition): 8.41%
Mean % ([5]; Sigma 2, mean inhibition): -5.79%
